Assays:
HCT-15 = experiment: Anticancer activity, SRB assay, colon cell line HCT-15; assay type: cell-based; conditions: Homo sapiens; Colon HCT-15; 48 h continuous drug exposure; read-out: Growth Inhibition GI50
Method: (§1) Some of biological activity studies were carried out at the National Cancer Institute (NCI), Maryland, USA.
(§2) The compounds were evaluated for anticancer activity against sixty human cancer cells derived from nine cancer types (leukemia cell line, non-small-cell lung cell line, colon cell line, CNS cell line, melanoma cell line, ovarian cell line, prostate cell line, renal cell line and breast cancer cell line) as shown in Table 1. For each compound, dose response curves for each cell line were measured at a minimum of five concentrations at 10 fold dilutions. A protocol of 48 h continuous drug exposure was used and a sulforhodamine B (SRB) protein assay was used to estimate cell viability or growth.

LOX IMVI = experiment: Anticancer activity, SRB assay, melanoma cell line LOX IMVI; assay type: cell-based; conditions: Homo sapiens, 48 h continuous drug exposure, read-out: Growth Inhibition GI50
Method: as §1, §2

UACC-62 = experiment: Anticancer activity, SRB assay, melanoma cell line UACC-62; assay type: cell-based; conditions: Homo sapiens; Melanoma UACC-62; 48 h continuous drug exposure; read-out: Growth Inhibition GI50
Method: as §1, §2

SN12C = experiment: Anticancer activity, SRB assay, renal cell line SN12C; assay type: cell-based, human; conditions: 48 h continuous drug exposure, —^b means GI50 values not attained at the concentrations used; for GI50: Homo sapiens, read-out: Growth Inhibition GI50
Method: as §1, §2

NCI-H23 = experiment: Anticancer activity, SRB assay, non-small lung cell line NCI-H23; assay type: cell-based; conditions: Homo sapiens, Non-small lung NCl-H23, 48 h continuous drug exposure, read-out: Growth Inhibition GI50
Method: as §1, §2

SNB-19 = experiment: Anticancer activity, SRB assay, CNS cell line SNB-19; assay type: cell-based, human; conditions: CNS SNB-19, 48 h continuous drug exposure, —^b means GI50 values not attained at the concentrations used; for GI50: Homo sapiens, read-out: Growth Inhibition GI50
Method: as §1, §2

SF-295 = experiment: Anticancer activity, SRB assay, CNS cell line SF-295; assay type: cell-based, human; conditions: CNS SF-295, 48 h continuous drug exposure, —^b means GI50 values not attained at the concentrations used; for GI50: Homo sapiens, read-out: Growth Inhibition GI50
Method: as §1, §2

MALME-3M = experiment: Anticancer activity, SRB assay, melanoma cell line MALME-3M; assay type: cell-based; conditions: Homo sapiens; Melanoma MALME-3M; 48 h continuous drug exposure; read-out: Growth Inhibition GI50
Method: as §1, §2

A549/ATCC = experiment: Anticancer activity, SRB assay, non-small lung cell line A549/ATCC; assay type: cell-based, human; conditions: 48 h continuous drug exposure, —^b means GI50 values not attained at the concentrations used; for GI50: Homo sapiens, read-out: Growth Inhibition GI50
Method: as §1, §2

786-0 = experiment: Anticancer activity, SRB assay, renal cell line 786-0; assay type: cell-based, human; conditions: Renal 786-0, 48 h continuous drug exposure, —^b means GI50 values not attained at the concentrations used; for GI50: Homo sapiens, read-out: Growth Inhibition GI50
Method: as §1, §2

HOP-62 = experiment: Anticancer activity, SRB assay, non-small lung cell line HOP-62; assay type: cell-based, human; conditions: Non-small lung HOP-62, 48 h continuous drug exposure, —^b means GI50 values not attained at the concentrations used; for GI50: Homo sapiens, read-out: Growth Inhibition GI50
Method: as §1, §2

HT29 = experiment: Anticancer activity, SRB assay, colon cell line HT29; assay type: cell-based; conditions: Homo sapiens, HT-29, 48 h continuous drug exposure, read-out: Growth Inhibition GI50
Method: as §1, §2

MDA-MB-435 = experiment: Anticancer activity, SRB assay, melanoma cell line MDA-MB-435; assay type: cell-based, human; conditions: Melanoma MDA-MB-435, 48 h continuous drug exposure, —^b means GI50 values not attained at the concentrations used; for GI50: Homo sapiens, read-out: Growth Inhibition GI50
Method: as §1, §2

SF-539 = experiment: Anticancer activity, SRB assay, CNS cell line SF-539; assay type: cell-based, human; conditions: CNS SF-539, 48 h continuous drug exposure, —^b means GI50 values not attained at the concentrations used; for GI50: Homo sapiens, read-out: Growth Inhibition GI50
Method: as §1, §2

SR = experiment: Anticancer activity, SRB assay, leukemia cell line SR; assay type: cell-based; conditions: Homo sapiens, 48 h continuous drug exposure, read-out: Growth Inhibition GI50
Method: as §1, §2

[1] = system: nine non-small cell lung cancer cell lines (A549/ATCC, EKVX, HOP-62, HOP-92, NCI-H226, NCI-H23, NCI-H322M, NCI-H460 and NCI-H522); experiment: Anticancer activity, SRB assay, non-small cell lung panel; assay type: cell-based, human; conditions: Non-small cell lung; for mean graph midpoint values (MG_MID) of log10 TGI (Log10TGI50): log value of concentration of the compound resulting in total inhibition of net cell growth; for mean graph midpoint values (MG_MID) of Log10LC50: log value of the concentration of compounds leading to 50% net cell death; for mean graph midpoint values (MG_MID) of Log10GI50: log values of concentration in mol/L causing 50% inhibition of net cell growth
Method: as §1, §2

[2] = as above; assay type: cell-based, human; conditions: Homo sapiens; nine non-small cell lung cancer cell lines; exposure period of at least 48 h; read-out: GI50 (range over the panel)
Method: as §1, §2

OVCAR-5 = experiment: Anticancer activity, SRB assay, ovarian cell line OVCAR-5; assay type: cell-based, human; conditions: Ovarian OVCAR-5, 48 h continuous drug exposure, —^b means GI50 values not attained at the concentrations used; for GI50: Homo sapiens, read-out: Growth Inhibition GI50
Method: as §1, §2

RXF 393 = experiment: Anticancer activity, SRB assay, renal cell line RXF 393; assay type: cell-based, human; conditions: Renal RXF 393; 48 h continuous drug exposure; —^b means GI50 values not attained at the concentrations used
Method: as §1, §2

| Compound | GI50 (HCT-15) [nM] | GI50 (LOX IMVI) [nM] | GI50 (UACC-62) [nM] | GI50 (SN12C) [nM] | GI50 (NCI-H23) [nM] | GI50 (SNB-19) [nM] | GI50 (SF-295) [nM] | GI50 (MALME-3M) [nM] | GI50 (A549/ATCC) [nM] | GI50 (786-0) [nM] | GI50 (HOP-62) [nM] | GI50 (HT29) [nM] | GI50 (MDA-MB-435) [nM] | GI50 (SF-539) [nM] | GI50 (SR) [nM] | mean graph midpoint values (MG_MID) of log10 TGI (Log10TGI50) [1] | mean graph midpoint values (MG_MID) of Log10LC50 [1] | mean graph midpoint values (MG_MID) of Log10GI50 [1] [mol/L] | GI50 [2] [nM] | GI50 (OVCAR-5) [nM] | further results |
| --- | --- | --- | --- | --- | --- | --- | --- | --- | --- | --- | --- | --- | --- | --- | --- | --- | --- | --- | --- | --- | --- |
| Cc1cc(C#Cc2ccccc2)ccc1-n1c(/C=C/c2ccc(O)cc2)nc2ccccc2c1=O [Compound 4b, (E)-2-(4-Hydroxystyryl)-3-(2-methyl-4-(phenylethynyl)phenyl)quinazolin-4(3H)-one] | 2500 | 2780 | 3480 | 3770 | 3620 | 6910 | 2850 | 2120 | 3140 | 3650 | 13100 | 3330 | 2820 | 5650 | 2450 | −4.32 | −4.04 | −5.47 | 2220 to 13100 | 4590 |  |
| Cc1cc(C#Cc2ccccc2)ccc1-n1c(/C=C/c2cc(O)ccc2O)nc2ccccc2c1=O [Compound 4c, (E)-2-(2,5-Dihydroxystyryl)-3-(2-methyl-4-(phenylethynyl)phenyl)quinazolin-4(3H)-one] | 1030 | 1370 | 1520 | 1620 | 1480 | 1620 | 1350 | 1500 | 1280 | 1740 | 1710 | 1950 | 1670 | 1600 | 1100 | −5.44 | −4.91 | −5.83 | 1240 to 1710 | 1390 |  |
| COc1ccc2cc(C#Cc3ccc(-n4c(/C=C/c5cc(OC)c(OC)c(OC)c5)nc5ccccc5c4=O)c(C)c3)ccc2c1 [Compound 6l, (E)-3-(4-((6-Methoxynaphthalen-2-yl)ethynyl)-2-methylphenyl)-2-(3,4,5-trimethoxystyryl)quinazolin-4(3H)-one] | 1220 | 5960 | 2190 |  | 40500 |  |  | 42600 |  |  |  | 3410 |  |  | 395 | >−4.00 | >−4.00 | −4.32 | 2480 to 40500 |  | Growth Inhibition GI50 (SN12C): —^b; Growth Inhibition GI50 (SNB-19): —^b; Growth Inhibition GI50 (SF-295): —^b; Growth Inhibition GI50 (A549/ATCC): —^b; Growth Inhibition GI50 (786-0): —^b; Growth Inhibition GI50 (HOP-62): —^b; Growth Inhibition GI50 (MDA-MB-435): —^b; Growth Inhibition GI50 (SF-539): —^b; Growth Inhibition GI50 (RXF 393): —^b; Growth Inhibition GI50 (OVCAR-5): —^b |
